Test results: publication doi:10.1101/2025.11.06.687025v1 (biorxiv, 2025)

Assays:
[1] = target: T1, mouse serotonin 5-HT2C receptor (Mus musculus, UniProt P34968); assay: Fura-2 Ca2+ imaging, fraction of responsive HEK/5-HT2C cells, Hill fit; type: cell-based
T1 construct: gene Htr2c; recombinant receptor stably expressed in HEK293 (HEK/5-HT2C cells)
T1 sequence (P34968 33-459): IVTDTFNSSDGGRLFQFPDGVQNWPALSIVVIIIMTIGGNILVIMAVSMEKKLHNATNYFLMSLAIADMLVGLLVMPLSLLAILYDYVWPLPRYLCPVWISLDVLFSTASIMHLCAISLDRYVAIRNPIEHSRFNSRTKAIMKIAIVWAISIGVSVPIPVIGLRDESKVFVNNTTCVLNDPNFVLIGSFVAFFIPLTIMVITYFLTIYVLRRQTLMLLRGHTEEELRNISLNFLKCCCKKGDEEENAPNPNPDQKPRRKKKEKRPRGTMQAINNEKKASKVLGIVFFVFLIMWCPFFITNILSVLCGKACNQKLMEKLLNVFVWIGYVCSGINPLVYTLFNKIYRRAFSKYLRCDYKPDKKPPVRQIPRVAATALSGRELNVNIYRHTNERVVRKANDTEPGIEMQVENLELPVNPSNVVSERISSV

[2] = target: T1, mouse serotonin 5-HT2C receptor; assay: as above; type: cell-based; remark: listed apart in the source

IC50 [1] [µM] | EC50 [2] [µM] | SMILES
1.2 | – | O=c1cc(N2CCOCC2)oc2c(-c3ccccc3)cccc12 [LY294002]
– | 2.5 | O=c1cc(N2CCNCC2)oc2c(-c3ccccc3)cccc12 [LY303511]
